Patent publication US20260263471A1, “Methods of Treating Myelofibrosis” (Kartos Therapeutics, Inc., priority 2024, published 2026)
“Also recorded” adds a separate entry of the source. Like-named read-outs stand apart in the source and are kept apart here.

Key:
p21 = p21 expression in MF patient cells; assay type: cell-based, human; conditions: single agent alone
[1] = system: JAKi-naive MF patients with a suboptimal response to ruxolitinib; assay: Pooled published phase 3 data, suboptimal responders to ruxolitinib; assay type: in vivo, human
Text: Data was pooled from published phase 3 studies for patients treated with ruxolitinib in the JAKi-naive MF setting (Verstovsek 2012; Mesa 2017; Pemmaraju 2023; Rampal 2023) to understand the natural history of patients with MF who achieve a suboptimal response to ruxolitinib, as defined in Study KRT-232-115 (e.g., a subject with an SVR>0% but <35% and a TSS reduction >0% but <50%) (FIG. 12).
FIG. 12 illustrates suboptimal spleen and symptom responders from the pooled phase 3 ruxolitinib data, including patients treated with ruxolitinib monotherapy with and without placebo. SVR data was obtained for 465 subjects from the three studies COMFORT-1, […]-1, and TRANSFORM-1 (Verstovsek 2012; Mesa 2017; Pemmaraju 2023). TSS data was obtained for 528 subjects from the three studies. Week-24 data used as a proxy to Week-18 suboptimal response assessment.

MF patients = conditions: cited from earlier work
[2] = system: ruxolitinib-treated patients with myelofibrosis; conditions: cited from earlier work
[3] = system: patients who discontinue ruxolitinib; conditions: after discontinuing ruxolitinib; 95% CI 8.0-22.7; cited from earlier work
[4] = system: subjects with MF who were relapsed or refractory to JAK inhibitor treatment; assay: KRT-232-101A Phase 2 open-label dose-finding study, navtemadlin monotherapy; assay type: in vivo, human; conditions: for TSS50 at Week 24 by MFSAF v4.0 (proportion of subjects) / SVR35 at Week 24 by Central Review (proportion of subjects): Rux-relapsed/refractory MF; for TSS50 at Week 24 by MFSAF v4.0 (proportion of subjects): n = 14; for SVR35 at Week 24 by Central Review (proportion of subjects): n = 14 with ruxolitinib washout ≥28 days; for circulating CD34+ cells: single agent
Description: KRT-232-101A is a Phase 2 open-label, dose-finding study designed to evaluate the safety and efficacy of navtemadlin in subjects with MF who were relapsed or refractory to JAK inhibitor treatment. Subjects were treated with one of four dosing schedules to determine the optimal Phase 2 dose and schedule: navtemadlin 120 mg QD for Days 1-7 on a […]; navtemadlin 240 mg QD for Days 1-7 on a 21-day cycle; navtemadlin 240 mg QD for Days 1-7 on a 28-day cycle; or navtemadlin 240 mg QD for Days 1-5 on a 28-day cycle.
Fourteen (14) of these subjects had ruxolitinib washout of ≥28 days prior to the baseline imaging assessment; efficacy results are reported for this subset of patients to control for the effects on the spleen after ruxolitinib discontinuation prior to Cycle 1 Day 1. Median treatment duration for all 32 subjects was 175.5 days (range, 2-469).

[5] = system: treatment-naïve patients with MF; assay: KRT-232-114 Phase 2 open-label study, navtemadlin monotherapy; assay type: in vivo, human; conditions: Rux-naïve MF, 240 mg Days 1-7 of 28-day cycle
Description: KRT-232-114 was a Phase 2 open-label study in which the safety and efficacy of navtemadlin monotherapy was assessed in treatment-naïve patients with MF. […] Median treatment duration was 183.0 days (range, 7-539).

[6] = Standard panel of assays: mutagenicity, genotoxicity, phototoxicity
Text: Repeat-dose toxicity studies of up to 13 weeks duration in rats and monkeys, along with in vitro and in vivo safety pharmacology studies, have been completed for navtemadlin. […] Nonclinical embryofetal toxicity and fertility studies have not been conducted for navtemadlin due to the well documented requirement for p53/MDM2 control during embryonic and fetal development. Based on its mechanism of action, navtemadlin alters cell proliferation and is expected to result in adverse effects on embryofetal viability and development.

[7] = system: xenograft models, tumor types harboring TP53WT; assay: Non-clinical xenograft models; assay type: in vivo; conditions: various genetic backgrounds
Text: (§1) Preclinical studies conducted with navtemadlin have yielded promising results in in vitro, ex vivo, and in vivo experiments, representing solid tumors and hematologic malignancies, including MF and acute myeloid leukemia secondary to an MPN.

p21 mRNA = assay: p53 pathway activation, non-clinical pharmacology; conditions: direct transcriptional target of p53
Text: as §1

[8] = within the first 1-2 years of treatment
[9] = KRT-232-101A, 240 mg Days 1-7 of 28-day cycle
[10] = KRT-232-101A, 240 mg Days 1-7 of 28-day cycle, listed as Navtemadlin

N#CC[C@H](C1CCCC1)n1cc(-c2ncnc3[nH]ccc23)cn1 [ruxolitinib, (R)-3-(4-(7H-pyrrolo[2,3-d]pyrimidin-4-yl)-1H-pyrazol-1-yl)-3-cyclopentylpropanenitrile]
p21 expression (p21): did not
mean SVR ([1]; suboptimal spleen responders, N=253, Week-24 data as proxy for Week 18): 18%
mean TSS reduction ([1]; suboptimal symptom responders (>0% but <50%)): 28.5%
time after initiating treatment by which benefit in SVR and TSS reduction is achieved, then plateau (MF patients; Verstovsek 2012): ≤ 12 weeks
MF patients with TSS reduction of greater than or equal to 50% (MF patients; ruxolitinib monotherapy): approximately 46%
responding patients achieving both SVR ≥35% and TSS ≥50% (MF patients; ruxolitinib monotherapy): 20-25%
effect on bone marrow fibrosis (MF patients; [8]): does not significantly affect
effect on variant allele frequency (VAF) of driver mutations (MF patients; [8]): does not significantly affect
hazard ratio for survival ([2]; patients with SVR≥25% to <35% versus SVR<10%, 95% CI 0.11-0.61): 0.25
reduction in risk of death ([2]; patients with SVR≥25% to <35% versus SVR<10%): 75%
hazard ratio for survival ([2]; patients with SVR≥35% to <50%, 95% CI 0.11-0.56): 0.24
median OS [3]: 13.2 months

CC(C)[C@@H](CS(=O)(=O)C(C)C)N1C(=O)[C@@](C)(CC(=O)O)C[C@H](c2cccc(Cl)c2)[C@H]1c1ccc(Cl)cc1 [navtemadlin, 2-((3R,5R,6S)-5-(3-chlorophenyl)-6-(4-chlorophenyl)-1-((S)-1-(isopropylsulfonyl)-3-methylbutan-2-yl)-3-methyl-2-oxopiperidin-3-yl) acetic acid]
TSS50 at Week 24 by MFSAF v4.0 (proportion of subjects) [4, 9]: 14.3%
TSS50 at Week 24 by MFSAF v4.0 (proportion of subjects) [4, 10]: 14.3% (2/14)
SVR35 at Week 24 by Central Review (proportion of subjects) [4, 9]: 14.3%
SVR35 at Week 24 by Central Review (proportion of subjects) [4, 10]: 14.3% (2/14)
median reduction in circulating CD34+ cells ([4]; baseline Cycle 1 Day 1 to Week 24, 240 mg Days 1-7 of 28-day cycle): 89.02%
subjects with improvement in fibrosis grade ([4]; baseline to Week 24, all evaluable subjects (12/44)): 27.3%
driver gene VAF ([4]; pharmacodynamic analysis, KRT-232-101A): VAF reductions
circulating CD34+ cells ([4]; KRT-232-101A): robustly decreased; also recorded: reduced
circulating CD34+ cells ([4]; KRT-232-101A, listed as Navtemadlin): decreased
SVR35 at Week 24 by Central Review (proportion of subjects) ([5]; n = 14): 14.3%
TSS50 at Week 24 by MFSAF v4.0 (proportion of subjects) ([5]; n = 14): 28.6%
SVR35 at Week 24 by Central Review (proportion of subjects) ([5]; n = 14, listed as Navtemadlin): 14.3% (2/14)
TSS50 at Week 24 by MFSAF v4.0 (proportion of subjects) ([5]; n = 14, listed as Navtemadlin): 28.6% (4/14)
mutagenicity / genotoxicity [6]: not mutagenic or genotoxic
potential for phototoxicity [6]: negligible potential
p21 expression (p21): markedly increased
tumor growth [7]: dose-dependent reduction
p21 mRNA (p21 mRNA): increases
